Source: patent EP4700025A1, “AMIDE COMPOUND, PHARMACEUTICAL COMPOSITION COMPRISING SAME, AND USE THEREOF” (Suzhou Genhouse Bio Co., Ltd., priority 2023, dated 2024)
Like-named read-outs stand apart in the source and are kept apart here.

Experiments:
[1] = Pharmacokinetic assay in mice; assay type: in vivo, Balb/c mice; conditions: mouse; for MRT inf: read-out: MRT(0-∞)
Method: Eighteen male Balb/c mice aged 6 to 8 weeks were randomly divided into 2 groups (IV group and PO group). The corresponding compounds were administered to the animals in the IV group by tail intravenous injection at 2 mg/kg, and the corresponding compounds were administered to the animals in the PO group by oral gavage at 10 mg/kg or 100 mg/kg. The animals in the IV group were allowed free access to food and water, and the animals in the PO group were fasted overnight before administration and were fed 4 h after administration. Throughout the experiment, the animals were allowed free access to water. Plasma samples were separately collected at 0.083 h (only group IV), 0.25 h, 0.5 h, 1 h, 2 h, 4 h, 8 h, and 24 h after administration. About 100 µL of blood was collected from the orbit of the animal, placed into a 1.5 mL anticoagulation centrifuge tube, and centrifuged at 8000 rpm and 4 °C for 10 min. The upper plasma sample was transferred to an EP tube. The plasma samples were stored in a refrigerator at -80 °C until sample analysis. Pharmacokinetic parameters of the drug were calculated based on the drug concentration-time data, including the peak concentration Cmax, peak time Tmax, clearance rate CL, steady state apparent volume of distribution Vss, area under drug-time curve AUC, elimination half-life t1/2, bioavailability, and the like. Data below the 80% lower limit of quantification were excluded from the calculation of pharmacokinetic parameters.

[2] = system: HCT-116; experiment: CCK8 proliferation inhibition, HCT-116; assay type: cell-based; conditions: Homo sapiens, 192 h, CCK8, 8 days after drug treatment
Method: (§1) The above normally growing cells were digested with a cell trypsinization solution, centrifuged, counted, and seeded into a 96-well plate at an appropriate cell density (2000 cells/well) at 100 µL/well. The next day after cell seeding, the compounds at different concentrations were added to the wells. Three replicate wells were set for each concentration point, and a corresponding DMSO negative control group was also set. CCK8 solution was added to each well 8 days after drug treatment. The plate was incubated at 37 °C for a period of time (OD450 of the vehicle group reached 1.0 or higher) before the absorbance at 450 nm was read using a microplate reader. The inhibition rates were calculated, and the EC50 values were determined by fitting using the GraphPad Prism 7.0 software. Table 2. EC50 values of compounds at cellular level

[3] = system: SDMA; experiment: SDMA Inhibition Assay in HCT-116 cells; assay type: cell-based; conditions: Homo sapiens, HCT-116, 96 hours
Method: (§2) The next day, the cells were treated with the compounds at different concentrations (with an initial concentration of 10 µM, 5-fold dilution, 9 concentration gradients). After 96 hours, the culture medium was pipetted out and the cells were washed 2 times with 100 µL of PBS. The cells were then fixed with 4% paraformaldehyde and incubated at room temperature for 20 min. The fixative solution was discarded, and the cells were washed with PBS. 150 µL of specialized blocking solution (containing 1% Triton-100) was added to each well for blocking at room temperature for 2 hours, and the plate was washed with PBS to remove excess blocking solution. […] The cells were incubated at 4 °C overnight. The next day, the cells were separately washed 2 times with 1× PBST. […] The cells were incubated at room temperature for 2 hours. The cells were washed 2 times with 1× PBST and 1 time with PBS. Fluorescence signals at 700 nm and 800 nm were separately detected using a Li-COR Odyssey two-color near-infrared laser imager. The inhibition rates were calculated, and the EC50 values were determined by fitting using the GraphPad Prism 7.0 software. Table 3. Inhibition of SDMA by test compounds

[4] = system: SDMA; experiment: SDMA Inhibition Assay in A549 cells; assay type: cell-based; conditions: Homo sapiens, A549, 96 hours
Method: as §2

[5] = system: SDMA; experiment: SDMA Inhibition Assay in HCT-116-MTAP^-/- cells; assay type: cell-based; conditions: Homo sapiens, 96 hours
Method: as §2

[6] = system: HCT-116-MTAP^-/-; experiment: CCK8 proliferation inhibition, HCT-116-MTAP^-/-; assay type: cell-based; conditions: Homo sapiens, 192 h; HCT-116-MTAP^-/- (MTAP-deficient); CCK8, 8 days after drug treatment
Method: as §1

[7] = system: A549; experiment: CCK8 proliferation inhibition, A549; assay type: cell-based; conditions: Homo sapiens, 192 h, CCK8, 8 days after drug treatment
Method: as §1

[8] = male, Balb/c, plasma, 2 mg/kg, IV 2mpk
[9] = male, Balb/c, plasma, 10 mg/kg, PO 10mpk

Structure (SMILES)	EC50 [2] [nM]	EC50 [3] [nM]	EC50 [4] [nM]	EC50 [5] [nM]	EC50 [6] [nM]	further results
Nc1nc2cnc(C(=O)N3CCOC[C@@H]3c3ccc(C(F)(F)F)cc3)cc2c2c1COC2 [Control compound B, reference compound]						AUC(0-t) [1, 8]: 6.9 µM·h; AUC(0-t) [1, 9]: 26.5 µM·h; Cmax [1, 9]: 5760 nM
CC1OCc2c1c(N)nc1cc(F)c(C(=O)N(Cc3ccc4c(c3)OC(F)(F)O4)C3CC3)cc21 (racemic) [Example I-36]	> 10000				24.2	
Cn1ncc2c(N)nc3ccc(C(=O)N4CCOCC4c4ccc5c(c4)OC(F)(F)O5)cc3c21 (centres unmarked) [Example I-4]	> 10000	381	7	7.4	27	
Cn1ncc2c(N)nc3cc(F)c(C(=O)N4CCOCC4c4ccc5c(c4)OC(F)(F)O5)cc3c21 (centres unmarked) [Example I-3]	2370	101	2.1	0.6	8.4	
Cn1ncc2c(N)nc3cnc(C(=O)N4CCN(C5(C)CC5)CC4c4ccc5c(c4)OC(F)(F)O5)cc3c21 (racemic) [Example I-113]	> 10000	403		4.1	50.5	
Cn1ncc2c(N)nc3cnc(C(=O)N4CC5(CC5)OCC4c4ccc5c(c4)OC(F)(F)O5)cc3c21 (centres unmarked) [Example I-110]		> 1000	19	36		

More lines, main results first:

EC50 [2] [nM]	EC50 [3] [nM]	EC50 [4] [nM]	EC50 [5] [nM]	EC50 [6] [nM]	Structure (SMILES)	further results
2360	200	2.6	2.1	4.7	CCN(Cc1ccc2c(c1)OC(F)(F)O2)C(=O)c1ccc2nc(N)c3cnn(C)c3c2c1 [Example I-5]	AUC(0-inf) [1, 8]: 3.62 µM·h; AUC(0-t) [1, 8]: 3.32 µM·h; C0 [1, 8]: 1860 nM; MRT inf [1, 8]: 2.9 h; Vd ([1]; male, Balb/c, plasma, 2 mg/kg, IV 2mpk, read-out: Vz): 4.4 L/kg; AUC(0-inf) [1, 9]: 12.4 µM·h; AUC(0-t) [1, 9]: 12.4 µM·h; Cmax [1, 9]: 1930 nM; Tmax [1, 9]: 1 h; MRT inf [1, 9]: 4.8 h; CLz ([1]; IV 2mpk): 21.7 mL/min/kg; R_AUC(t/∞) ([1]; IV 2mpk): 91.7%; t1/2z ([1]; IV 2mpk): 2.4 h; R_AUC(t/∞) ([1]; PO 10mpk): 99.9%; t1/2z ([1]; PO 10mpk): 2.4 h; F ([1]; PO 10mpk vs IV 2mpk): 68.6%
		0.8	1.3	2.1	COCCN(Cc1ccc2c(c1)OC(F)(F)O2)C(=O)c1cc2c(cc1F)nc(N)c1cnn(C)c12 [Example I-23]	EC50 [7]: 7.7 nM
		2.1	3.5	3.4	CC(C)N(Cc1ccc2c(c1)OC(F)(F)O2)C(=O)c1cc2c(cc1F)nc(N)c1cnn(C)c12 [Example I-13]	EC50 [7]: 10.8 nM
> 10000	828	7.2	6.6	48.2	CN(Cc1ccc2cnn(C)c2c1)C(=O)c1cc2c(cc1F)nc(N)c1cnn(C)c12 [Example I-19]	
